Marks after values point to notes of the source that are not given here.
How the values were obtained:
human mu opioid receptor = target: T1, human mu opioid receptor (Homo sapiens, UniProt P35372); experiment: Calcium mobilization in CHO cells co-expressing the mu receptor and Gαqi5; type: cell-based
T1 construct: expressed in transfected cells

[1] = target: T2, human delta opioid receptor (Homo sapiens, UniProt P41143); experiment: Calcium mobilization in CHO cells co-expressing the delta receptor and GαqG66Di5; type: cell-based
T2 construct: expressed in transfected cells

[2] = test system: human kappa opioid receptor; experiment: Bias factor, G protein vs β-arrestin 2, from BRET data
Experimental: To quantify the differences in agonist efficacies for G protein and arrestin interactions, bias factors were calculated by choosing the endogenous kappa opioid ligand Dyn A as standard unbiased ligand. For this analysis, the Emax and EC50 of the agonist were derived using a 3-parameter logistic model with slope values equal to unity. […] Under such conditions, the relative ratio (Emax/EC50)lig/(Emax/EC50)Dyn A is equivalent to the relative (τ/K)lig/(τ/K)Dyn A ratio as defined by the operational model ([Black and Leff, 1983]; [Griffin et al., 2007]). Taking ratios of these values between G protein and arrestin can cancel the common K and yield the ratio of ligand intrinsic efficacy across the two transduction proteins. Thus, the following formula was used for calculating agonist bias factors in log10 units: bias factor= log[(Emax/EC50)lig/(Emax/EC50)Dyn A]G prot.−log[(Emax/EC50)lig/(Emax/EC50)Dyn A]β−arr.
The pharmacological terminology and computations related to biased agonism were consistent with IUPHAR recommendations ([Kolb et al., 2022]).

[3] = target: T3, human kappa opioid receptor (Homo sapiens, UniProt P41145); experiment: biochemical; type: biochemical; set-up: 13-mer linker peptide […]; expressed in transfected cells; enriched plasma membranes used
[4] = target: T3, human kappa opioid receptor; experiment: Calcium mobilization in CHO cells co-expressing the kappa receptor and Gαqi5; type: cell-based; set-up: expressed in transfected cells
[5] = target: T3, human kappa opioid receptor; experiment: Dynamic mass redistribution (DMR) label-free assay in CHO cells; type: cell-based; set-up: expressed in transfected cells
Experimental: DMR experiments were conducted as previously described ([Malfacini et al., 2018]). Chinese Hamster Ovary (CHO) cells stably expressing the human kappa receptor were kindly provided by L Toll (Torrey Pines Institute for Molecular Studies, Port St. Lucie, United States). Cells were cultured in Dulbecco’s Modified Eagle Medium: Nutrient Mixture F-12 (DMEM/F12) supplemented with 10% (v/v) Fetal Calf Serum (FCS), 100 U/ml penicillin, 100 μg/ml streptomycin, 2 mM L-glutamine, 15 mM HEPES. The medium was supplemented with 400 μg/ml G418 to maintain expression. Cells were seeded at a density of 45,000 cells/well in 120 μL into fibronectin-coated EnspireTM-LC 96-wells plates and cultured for 20 h to form a confluent monolayer. On the day of the experiment, cells were washed twice and maintained with assay buffer: HBSS with 20 mM HEPES, 0.01% BSA fraction V; for 90 min before the experiment. DMR was monitored in real-time with a temporal resolution of 44 s throughout the assay. Experiments were performed at 37°C, using an EnSight Multimode Plate Reader (PerkinElmer). A 5 min baseline was first established, followed by adding compounds manually in a volume of 40 μL and recording compound-triggered DMR signal for 60 min. In antagonism experiments, ligands tested as antagonists were added 30 min before agonist administration. Maximum picometers (pm) modification (peak) were used to determine agonist response after baseline normalization.
The pharmacological terminology is consistent with the International Union of Basic and Clinical Pharmacology (IUPHAR) recommendations ([Neubig et al., 2003]). Concentration-response curves to agonists were fitted to the four-parameter logistic nonlinear regression model as follows: Effect=Basal+ Emax−Basal/1+10^ (LogEC50−Log[ligand]) × HillSlope
If unsurmountable antagonist behavior was detected, the pKB value was derived as follows: a double-reciprocal plot of equi-effective concentrations of agonist (A) in the absence (1/A) and presence (1/A’) of the antagonist (B) was constructed and pKB was derived from the equation pKB = log {(slope-1)/[B]} ([Kenakin, 2009]).

[6] = target: T3, human kappa opioid receptor; experiment: Summary over the assays used (calcium mobilization, DMR, BRET); type: cell-based; set-up: expressed in transfected cells
[7] = target: T3, human kappa opioid receptor; experiment: BRET kappa-β-arrestin 2 interaction, SH-SY5Y whole cells; type: cell-based; set-up: 13-mer linker peptide […]; expressed in transfected cells; enriched plasma membranes used
kappa opioid receptor = test system: kappa opioid receptor; set-up: method as in Arimitsu et al., 1977; conditions: ref Arimitsu et al., 1977, cited from earlier work
mice [8] = test system: mice; set-up: method as in Gairin et al., 1988a; conditions: intracerebroventricular, ref Gairin et al., 1988a; cited from earlier work
mice [9] = test system: mice; set-up: method as in Gairin et al., 1988a; conditions: intracerebroventricular, ref Gairin et al., 1988a; cited from earlier work; remark: listed apart in the source

T2 sequence (P41143 whole entry): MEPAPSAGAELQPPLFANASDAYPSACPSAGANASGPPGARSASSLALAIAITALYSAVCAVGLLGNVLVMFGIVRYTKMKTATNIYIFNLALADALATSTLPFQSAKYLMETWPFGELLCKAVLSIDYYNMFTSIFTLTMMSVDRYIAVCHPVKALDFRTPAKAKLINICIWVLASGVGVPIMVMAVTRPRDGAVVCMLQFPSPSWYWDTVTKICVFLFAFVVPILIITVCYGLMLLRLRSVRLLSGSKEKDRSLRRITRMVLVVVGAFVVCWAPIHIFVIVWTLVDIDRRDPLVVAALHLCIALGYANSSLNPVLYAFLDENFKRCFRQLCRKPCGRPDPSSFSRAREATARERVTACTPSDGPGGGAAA
T1 sequence (P35372 whole entry): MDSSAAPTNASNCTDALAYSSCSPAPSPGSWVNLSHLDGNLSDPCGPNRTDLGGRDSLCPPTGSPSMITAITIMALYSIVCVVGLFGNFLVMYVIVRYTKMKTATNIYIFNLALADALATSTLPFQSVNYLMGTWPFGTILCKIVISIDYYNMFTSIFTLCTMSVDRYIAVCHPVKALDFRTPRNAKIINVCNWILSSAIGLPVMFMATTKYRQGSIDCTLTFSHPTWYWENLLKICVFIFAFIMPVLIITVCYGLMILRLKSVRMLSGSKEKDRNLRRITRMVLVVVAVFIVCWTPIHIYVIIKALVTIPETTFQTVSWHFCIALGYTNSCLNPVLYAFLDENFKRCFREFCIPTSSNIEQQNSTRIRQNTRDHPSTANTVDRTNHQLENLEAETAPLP
T3 sequence (P41145 whole entry): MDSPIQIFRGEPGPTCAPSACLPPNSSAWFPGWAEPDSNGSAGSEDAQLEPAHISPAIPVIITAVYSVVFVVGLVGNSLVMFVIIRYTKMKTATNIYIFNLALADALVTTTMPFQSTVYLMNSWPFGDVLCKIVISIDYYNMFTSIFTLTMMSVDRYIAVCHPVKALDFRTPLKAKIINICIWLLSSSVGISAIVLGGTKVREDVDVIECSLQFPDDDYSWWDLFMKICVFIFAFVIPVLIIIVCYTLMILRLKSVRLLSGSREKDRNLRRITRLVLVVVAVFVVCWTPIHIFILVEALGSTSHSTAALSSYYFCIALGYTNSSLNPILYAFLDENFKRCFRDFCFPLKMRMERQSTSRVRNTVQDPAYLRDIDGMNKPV

Compound: C[C@@H](NC(=O)[C@@H](N)Cc1ccc(O)cc1)C(=O)N[C@@H](Cc1ccccc1)C(=O)NCC(=O)N[C@@H](Cc1ccc(O)cc1)C(=O)N1CCC[C@H]1C(=O)N[C@@H](CO)C(N)=O [Dermorphin]
- Maximal effects (human mu opioid receptor; CHO cells, mu + Gαqi5): 294 % over the baseline

Compound: CC[C@H](C)[C@H](NC(=O)[C@H](CCCNC(=N)N)NC(=O)[C@H](CCCNC(=N)N)NC(=O)[C@H](CC(C)C)NC(=O)[C@H](Cc1ccccc1)NC(=O)CNC(=O)CNC(=O)[C@@H](N)Cc1ccc(O)cc1)C(=O)N[C@@H](CCCNC(=N)N)C(=O)N1CCC[C@H]1C(=O)N[C@@H](CCCCN)C(=O)N[C@@H](CC(C)C)C(=O)N[C@@H](CCCCN)C(=O)N[C@@H](Cc1c[nH]c2ccccc12)C(=O)N[C@@H](CC(=O)O)C(=O)N[C@@H](CC(N)=O)C(=O)N[C@@H](CCC(N)=O)C(=O)O [Dyn A, dynorphin A]
- Maximal effects ([1]; CHO cells, delta + GαqG66Di5): 171 % over the baseline
- Bias factor (CL95%) [2]: 0.00

Compound: CCCCCCCCCCCCCCCC(=O)NCCCN1C(=O)CC(SC[C@H](NC(=O)[C@H](CCC(N)=O)NC(=O)[C@H](CC(N)=O)NC(=O)[C@H](CC(=O)O)NC(=O)[C@H](Cc2c[nH]c3ccccc23)NC(=O)[C@H](CCCCN)NC(=O)[C@H](CC(C)C)NC(=O)[C@H](CCCCN)NC(=O)[C@@H]2CCCN2C(=O)[C@H](CCCNC(=N)N)NC(=O)[C@@H](NC(=O)[C@H](CCCNC(=N)N)NC(=O)[C@H](CCCNC(=N)N)NC(=O)[C@H](CC(C)C)NC(=O)[C@H](Cc2ccccc2)NC(=O)CNC(=O)CNC(=O)[C@@H](N)Cc2ccc(O)cc2)[C@@H](C)CC)C(N)=O)C1=O (some centres unmarked) [Dyn A-palmitic]
- Lower potency than dermorphin (human mu opioid receptor; calcium mobilization, mu): approximately 6 fold
- Less potent than DPDPE ([1]; calcium mobilization, delta): 10 fold

Compound: Nc1nc2c(ncn2[C@@H]2O[C@H](COP(=O)(O)OP(=O)(O)O)[C@@H](O)[C@H]2O)c(=O)[nH]1 [GDP, guanosine diphosphate]
- pEC50 (CL95%) ([3]; 5 min after compound addition): 8.20
- pEC50 (CL95%) ([3]; 30 min after compound addition): 8.21

Compound: CC[C@H](C)[C@H](NC(=O)[C@H](CCCNC(=N)N)NC(=O)[C@H](CCCNC(=N)N)NC(=O)[C@H](CC(C)C)NC(=O)[C@H](Cc1ccccc1)NC(=O)CNC(=O)CNC(=O)[C@@H](N)Cc1ccc(O)cc1)C(=O)N[C@@H](CCCNC(=N)N)C(=O)N1CCC[C@H]1C(=O)N[C@@H](CCCCN)C(=O)N[C@@H](CC(C)C)C(=O)N[C@@H](CCCCN)C(=O)N[C@@H](Cc1c[nH]c2ccccc12)C(=O)N[C@@H](CC(=O)O)C(=O)N[C@@H](CC(N)=O)C(=O)N[C@@H](CCC(N)=O)C(=O)N[C@@H](CSC1CC(=O)N(CCCC(=O)N2CCCN(C(=O)CCCN3C(=O)CC(SC[C@H](NC(=O)[C@H](CCC(N)=O)NC(=O)[C@H](CC(N)=O)NC(=O)[C@H](CC(=O)O)NC(=O)[C@H](Cc4c[nH]c5ccccc45)NC(=O)[C@H](CCCCN)NC(=O)[C@H](CC(C)C)NC(=O)[C@H](CCCCN)NC(=O)[C@@H]4CCCN4C(=O)[C@H](CCCNC(=N)N)NC(=O)[C@@H](NC(=O)[C@H](CCCNC(=N)N)NC(=O)[C@H](CCCNC(=N)N)NC(=O)[C@H](CC(C)C)NC(=O)[C@H](Cc4ccccc4)NC(=O)CNC(=O)CNC(=O)[C@@H](N)Cc4ccc(O)cc4)[C@@H](C)CC)C(N)=O)C3=O)CCN(C(=O)CCCN3C(=O)CC(SC[C@H](NC(=O)[C@H](CCC(N)=O)NC(=O)[C@H](CC(N)=O)NC(=O)[C@H](CC(=O)O)NC(=O)[C@H](Cc4c[nH]c5ccccc45)NC(=O)[C@H](CCCCN)NC(=O)[C@H](CC(C)C)NC(=O)[C@H](CCCCN)NC(=O)[C@@H]4CCCN4C(=O)[C@H](CCCNC(=N)N)NC(=O)[C@@H](NC(=O)[C@H](CCCNC(=N)N)NC(=O)[C@H](CCCNC(=N)N)NC(=O)[C@H](CC(C)C)NC(=O)[C@H](Cc4ccccc4)NC(=O)CNC(=O)CNC(=O)[C@@H](N)Cc4ccc(O)cc4)[C@@H](C)CC)C(N)=O)C3=O)CCCN(C(=O)CCCN3C(=O)CC(SC[C@H](NC(=O)[C@H](CCC(N)=O)NC(=O)[C@H](CC(N)=O)NC(=O)[C@H](CC(=O)O)NC(=O)[C@H](Cc4c[nH]c5ccccc45)NC(=O)[C@H](CCCCN)NC(=O)[C@H](CC(C)C)NC(=O)[C@H](CCCCN)NC(=O)[C@@H]4CCCN4C(=O)[C@H](CCCNC(=N)N)NC(=O)[C@@H](NC(=O)[C@H](CCCNC(=N)N)NC(=O)[C@H](CCCNC(=N)N)NC(=O)[C@H](CC(C)C)NC(=O)[C@H](Cc4ccccc4)NC(=O)CNC(=O)CNC(=O)[C@@H](N)Cc4ccc(O)cc4)[C@@H](C)CC)C(N)=O)C3=O)CC2)C1=O)C(N)=O (some centres unmarked) [PWT2-Dyn A]
- Agonist activity (in words) (human mu opioid receptor; CHO cells, mu + Gαqi5): inactive
- Stimulatory effect ([1]; only at the highest concentration tested): 77 % over the baseline
- Bias factor (CL95%) [2]: ∼0.18 ^c
- Calcium Mobilization α (intrinsic activity: maximal effect divided by that of Dyn A) [4]: ∼1.00
- EC50 [4]: 0.0309 µM
- DMR α [5]: 0.84
- Lower potency than Dyn A [5]: 4 fold
- Lower potency than dynorphin A [6]: 3–10 fold
- BRET G Protein α [3]: ∼1.00
- Lower potency than Dyn A [3]: 3 fold
- EC50 ([3]; BRET G Protein pEC50 (CL95%)): 0.0186 µM
- BRET β-Arrestin 2 α [7]: ∼1.00
- EC50 [7]: 0.219 µM
- Lower potency than Dyn A [7]: 3 fold

Compound: CC[C@H](C)[C@H](NC(=O)[C@H](CCCNC(=N)N)NC(=O)[C@H](CCCNC(=N)N)NC(=O)[C@H](CC(C)C)NC(=O)[C@H](Cc1ccccc1)NC(=O)CNC(=O)CNC(=O)[C@@H](N)Cc1ccc(O)cc1)C(=O)N[C@@H](CCCNC(=N)N)C(=O)N1CCC[C@@H]1C(=O)N[C@@H](CCCCN)C(N)=O [[D-Pro^10], [D-Pro^10]Dyn(1-11)-NH2]
- Calcium Mobilization pEC50 (CL95%) [4]: 9.08 (8.93–9.23)
- Calcium Mobilization α (intrinsic activity: maximal effect divided by that of Dyn A) [4]: 1.00
- DMR Emax [5]: 251 pm
- DMR pEC50 (CL95%) [5]: 9.84 (9.31–10.37)
- DMR α [5]: 1.07
- BRET G Protein pEC50 (CL95%) [3]: 8.36 (6.54–10.19)
- BRET G Protein α [3]: 1.00
- BRET β-Arrestin 2 pEC50 (CL95%) [7]: 8.07 (7.66–8.47)
- BRET β-Arrestin 2 α [7]: 0.95

Compound: [D-Pro^10]Dyn(1-11)
- Higher affinity to the kappa opioid receptor than Dyn A (kappa opioid receptor; [^3H]Bremazocine binding): 7 fold
- Selectivity over the delta opioid receptor (kappa opioid receptor): 233 fold
- Selectivity over the mu opioid receptor (kappa opioid receptor): 62 fold
- Activity against thermal stimulus (tail-flick) (mice [8]): did not show any activity
- Effect in acetic acid-induced writhing (mice [9]): dose-dependent antinociceptive effect

— article PMC9068900, “Pharmacology of Kappa Opioid Receptors: Novel Assays and Ligands” (Frontiers in Pharmacology, 2022)
